Series [1] can be described thus: Determination of pharmacokinetics in mice. Format: in vivo. Conditions: male, CD1, mouse, plasma; Mice PK, 10 mg/kg, po; read-out: Oral bioavailability F %. As for the experimental part:
For PK measurements male adult CD1 mice weighing 25-30 g (Charles River) are split into weight matched groups of 3 per group. The mice were held at the scruff of the neck and orally dosed via a metal gavage directly into the stomach. Immediately after dosing mice are returned to their cage, plastic box cage with sawdust bedding, and food and water available. Blood samples were collected from the mouse under anaesthesia by cardiac puncture using a 1 mL syringe and 25 gauge needle at time zero and at intervals up to 8 h. Harvested blood was centrifuged at 7000×G for 2 minutes, and the plasma aspirated and frozen at −20° C. until analysis. Quantitative compound level analysis was carried out using LC-MS/MS methods. Pharmacokinetic data derived using PK Solutions 2.0, non-compartmental analysis. Oral bioavailability (% F) was calculated by taking the ratio of dose-normalised AUC values from oral versus parenteral dosing.

For series [2], the system named is HCT-116 (human colon carcinoma). Kind of series: 48h MTT proliferation assay. Format: cell-based. In general terms: Tetrazolium dyes change colour on reduction, which living cells bring about.
Series [3] deals with MCF-7 (human breast carcinoma). Kind of series: 48h MTT proliferation assay. Format: cell-based.
Another series relates to Normal B-cells. Kind of series: Ex vivo CLL assay (Annexin V apoptosis, flow cytometry). Format: cell-based, human. The conditions noted are these: up to 48 h. In general terms: A flow cytometer gives signals particle by particle.
The subject of a further series is Normal T-cells. The description is as above. Conditions: up to 48 h. Format: cell-based, human.
The test system of another series is Patient CLL B-cells. The series is described as above. Format: cell-based, human. Conditions: up to 48 h.
The test system of series [4] is MCL1 transcription in CLL cells. Kind of series: Real-time reverse transcription-PCR of MCL1. Format: cell-based, human. The conditions noted are these: 4 h, with and without CD40L co-culture. As for the experimental part: CDKI-73, 100:1) for 4 h using the method described by Walsby et al. (Oncotarget 3, 525-34 (2012)).
The test system of series [5] is MCL1, BCL2, XIAP, CCND1 and CCND2 expression in CLL cells. In words: Gene expression profiling (Affymetrix microarray). Format: cell-based, human. The text has this: The detailed protocol for sample preparation and microarray processing is available from Affymetrix (http://www.affymetrix.com). […] After second strand synthesis, the resulting cDNA was subjected to an in vitro transcription reaction using a Bioarray kit (Enzo Diagnostics, New York, N.Y., USA) to generate biotinylated cRNA. This was subsequently fragmented and hybridized to the Affymetrix U133 2.0 Gene Chips. After hybridization, each microarray was washed, stained and scanned with an argon-ion confocal laser, with excitation at 488 nm and detection at 570 nm. The significance of differences between experimental conditions was determined using the Student's t test for paired and unpaired observations. To assess the interaction between agents, the median effect method was employed using CalcuSyn software (CalcuSyn; Biosoft International, Ferguson, Mo.). The combination index was calculated for the two-drug combination using an experimentally determined fixed concentration ratio. […] Affymetrix gene expression data were processed using Partek Genomics Suite (Partek Inc. Saint Louis, USA).

For series [6], the system named is primary CLL cells co-cultured with CD40L-expressing mouse embryonic fibroblasts. Kind of series: Synergy between CDKI-73 and fludarabine under CD40L co-culture. Format: cell-based, human. Conditions: CDKI-73 combined with fludarabine, other two additive.
Description: Lymphocytes were separated using Ficoll-Hypaque (Sigma, Poole, UK) and autologous plasma was collected for use in some experiments. Separated lymphocytes were maintained in RPMI medium supplemented with 10% fetal bovine serum (FBS), penicillin (50 U/ml), streptomycin (50 μg/ml) and recombinant human IL-4 (R and D Systems, Abingdon, UK) (5 ng/ml). […] The significance of differences between experimental conditions was determined using the Student's t test for paired and unpaired observations. To assess the interaction between agents, the median effect method was employed using CalcuSyn software (CalcuSyn; Biosoft International, Ferguson, Mo.). The combination index was calculated for the two-drug combination using an experimentally determined fixed concentration ratio.
For series [7] the test system is unchanged. Conditions: fludarabine alone; Walsby et al. 2012; cited from earlier work.
[8] abbreviates: HCT-116, read-out: 48h-MTT Anti-proliferative activity GI50 HCT-116 (human colon carcinoma), Table 2, 48 h.
Where [9] appears, read: HCT-116, read-out: 48h-MTT cytotoxicity GI50 HCT-116, Table 1, 48 h.
The mark [10] stands for this setting: MCF7, read-out: 48h-MTT Anti-proliferative activity GI50 MCF-7 (human breast carcinoma), Table 2, 48 h.
[11] abbreviates: MCF7, read-out: 48h-MTT cytotoxicity GI50 MCF-7, Table 1, 48 h.

Read-outs that look alike come from different tables or passages of the source.

The source of these data is patent US9062039B2, “Therapeutic compounds” (CHANGZHOU LE SUN PHARMACEUTICALS LIMITED, priority 2012, dated 2015).

In general, bioavailability refers to the share of a dose that reaches the circulation, judged against a reference dose that is usually intravenous. As usually defined, the GI50 is the concentration at which growth is held to half of that of the control. On to `CNc1nc(C)c(-c2nc(Nc3cccc(S(N)(=O)=O)c3)ncc2C#N)s1` [Comparator, 3-(5-cyano-4-(4-methyl-2-(methylamino)thiazol-5-yl)pyrimidin-2-ylamino)benzenesulfonamide, reference compound], for which, in [1], the bioavailability turned out to be 7%. Further, the GI50 in series [2] (setting [8]) was 430 nM; in [2] (setting [9]), 440 nM; in series [3] (setting [10]), 480 nM; in [3] (setting [11]), 480 nM. Further, the “Ex vivo efficacy, LD50 Normal B-cells” value with Normal B-cells was determined as 89 µM. The “Ex vivo efficacy, LD50 Normal T-cells” value in the series with Normal T-cells is 350 µM. In addition, in the series with Patient CLL B-cells, the “Ex vivo efficacy, LD50 Patient CLL B-cells” value is 0.43 µM.

`CNc1nc(C)c(-c2nc(Nc3cccc(S(N)(=O)=O)c3)ncc2F)s1` [Example 1, 3-(5-Fluoro-4-(4-methyl-2-(methylamino)thiazol-5-yl)pyrimidin-2-ylamino)benzene sulfonamide]: in series [1], the bioavailability stood at 56%. The GI50 in series [2] (setting [8]) turned out to be 60 nM; in series [2] (setting [9]), 30 nM; in series [3] (setting [10]), 50 nM; in series [3] (setting [11]) it was 30 nM. The “MCL1 transcription (QRT-PCR)” value in series [4] (CDKI-73 in combination with fludarabine (100:1)) and in series [4] (single agent) was “significantly inhibited” each time. Moreover, the “Ex vivo efficacy, LD50 Normal B-cells” value with Normal B-cells was 40.5 µM. Moreover, in series [5] (combination 0.1 μM CDKI-73 and 10 μM fludarabine, 4 h), the “expression of MCL1, BCL2, XIAP and CCND1 and D2” value is on record as “marked repression”. Also, the “expression of MCL1, BCL2, XIAP and CCND1 and CCND2” value in series [5] (single agent, 0.1 μM CDKI-73, 4 h) is “down regulated”. In addition, the “Ex vivo efficacy, LD50 Normal T-cells” value in the series on Normal T-cells was 506.3 µM. For the same molecule, the “samples tested that showed cytotoxic synergy” value in series [6] is 8/10. Further, the “Ex vivo efficacy, LD50 Patient CLL B-cells” value in the series on Patient CLL B-cells amounted to 0.08 µM.

Take `CNc1nc(C)c(-c2nc(Nc3cccc(S(N)(=O)=O)c3)ncc2Cl)s1` [Example 3, 3-(5-chloro-4-(4-methyl-2-(methylamino)thiazol-5-yl)pyrimidin-2-ylamino)benzene sulfonamide]: the figures for the GI50 in series [2] (setting [9]) and in series [3] (setting [11]) were 30 nM and 60 nM, respectively.

Regarding `Nc1nc(F)nc2c1ncn2[C@@H]1O[C@H](CO)[C@@H](O)[C@@H]1O` [fludarabine], the “cytotoxic effects of fludarabine under CD40L co-culture” value in series [7] is “completely abrogates”.
